According to US20220249463A1, “METHODS OF ALTERING CARDIAC REMODELING USING COMPOUNDS THAT PROMOTE GLUCOSE OXIDATION” (IMBRIA PHARMACEUTICALS, INC., priority 2019, published 2022):

Assay: Stability of CV-8972 in aqueous solution at different concentrations and pH
Type: physicochemical
Experimental: The stability of CV-8972 was analyzed. Aqueous samples containing CV-8972 at different concentrations and pH were incubated for various periods and analyzed.
Form A of CV-8972 were analyzed for stability in aqueous solution. Aqueous samples containing CV-8972 at different concentrations and pH were incubated for various periods and analyzed.

[1] = 276-MBA-172 2 mg/mL pH 6 (Form A), 0 hrs, pH 6.1
[2] = 276-MBA-172 2 mg/mL pH 6 (Form A), 1 hrs, pH 6.1
[3] = 276-MBA-172 2 mg/mL pH 6 (Form A), 4 hrs, pH 6.1
[4] = 276-MBA-172 2 mg/mL pH 6 (Form A), 6 hrs, pH 6.1
[5] = 276-MBA-172 2 mg/mL pH 7 (Form A), 0 hrs, pH 6.7
[6] = 276-MBA-172 2 mg/mL pH 7 (Form A), 1 hrs, pH 6.8
[7] = 276-MBA-172 2 mg/mL pH 7 (Form A), 4 hrs, pH 6.7
[8] = 276-MBA-172 2 mg/mL pH 7 (Form A), 6 hrs, pH 6.7
[9] = 276-MBA-172 2 mg/mL pH 7 (Form A), 22 hrs, pH 6.8
[10] = 276-MBA-172 10 mg/mL pH 6 (Form A), 0 hrs, pH 6.6
[11] = 276-MBA-172 10 mg/mL pH 6 (Form A), 1 hrs, pH 6.8
[12] = 276-MBA-172 10 mg/mL pH 6 (Form A), 4 hrs, pH 6.8
[13] = 276-MBA-172 10 mg/mL pH 6 (Form A), 6 hrs, pH 6.7
[14] = 276-MBA-172 10 mg/mL pH 6 (Form A), 22 hrs, pH 6.7
[15] = 276-MBA-172 10 mg/mL pH 7 (Form A), 0 hrs, pH 7.1
[16] = 276-MBA-172 10 mg/mL pH 7 (Form A), 1 hrs, pH 7.2
[17] = 276-MBA-172 10 mg/mL pH 7 (Form A), 4 hrs, pH 7.1
[18] = 276-MBA-172 10 mg/mL pH 7 (Form A), 6 hrs, pH 7.1
[19] = 289-MBA-15-A 2 mg/mL pH 6 (Form B), 0 hrs, pH 6.9
[20] = 289-MBA-15-A 2 mg/mL pH 6 (Form B), 1 hrs, pH 6.9
[21] = 289-MBA-15-A 2 mg/mL pH 6 (Form B), 4 hrs, pH 6.8
[22] = 289-MBA-15-A 2 mg/mL pH 6 (Form B), 6 hrs, pH 6.8

COc1ccc(CN2CCN(CCOC(=O)c3cccnc3)CC2)c(OC)c1OC [CV-8972, 2-(4-(2,3,4-trimethoxybenzyl)piperazin-1-yl)ethyl nicotinate]
Retention Time 4.2 [1]: 1.29
Retention Time 5.6 [1]: 98.01
Decrease in purity of CV-8972 between time points [2]: 0.79
Retention Time 2.2 [2]: 1.5
Retention Time 4.2 [2]: 1.28
Retention Time 5.6 [2]: 97.22
Decrease in purity of CV-8972 between time points [3]: 0.21
Retention Time 2.2 [3]: 2.03
Retention Time 4.2 [3]: 0.95
Retention Time 5.6 [3]: 97.01
Decrease in purity of CV-8972 between time points [4]: 0.5
Retention Time 2.2 [4]: 2.47
Retention Time 4.2 [4]: 1.02
Retention Time 5.6 [4]: 96.51
Retention Time 2.2 [5]: 1.42
Retention Time 4.2 [5]: 1.05
Retention Time 5.6 [5]: 97.53
Decrease in purity of CV-8972 between time points [6]: 2.47
Retention Time 2.2 [6]: 3.31
Retention Time 4.2 [6]: 1.06
Retention Time 4.7 [6]: 0.57
Retention Time 5.6 [6]: 95.06
Decrease in purity of CV-8972 between time points [7]: 1.36
Retention Time 2.2 [7]: 4.21
Retention Time 2.6 [7]: 0.58
Retention Time 4.2 [7]: 0.82
Retention Time 4.7 [7]: 0.69
Retention Time 5.6 [7]: 93.7
Decrease in purity of CV-8972 between time points [8]: 1.58
Retention Time 2.2 [8]: 5.63
Retention Time 2.6 [8]: 0.67
Retention Time 4.2 [8]: 0.74
Retention Time 4.7 [8]: 0.85
Retention Time 5.6 [8]: 92.12
Decrease in purity of CV-8972 between time points [9]: 1.05
Retention Time 2.2 [9]: 6.26
Retention Time 2.6 [9]: 0.85
Retention Time 4.2 [9]: 0.85
Retention Time 4.7 [9]: 0.98
Retention Time 5.6 [9]: 91.07
Retention Time 2.2 [10]: 3.39
Retention Time 2.6 [10]: 0.6
Retention Time 4.2 [10]: 0.23
Retention Time 4.7 [10]: 0.54
Retention Time 5.6 [10]: 95.24
Decrease in purity of CV-8972 between time points [11]: 1.81
Retention Time 2.2 [11]: 4.81
Retention Time 2.6 [11]: 0.81
Retention Time 4.2 [11]: 0.23
Retention Time 4.7 [11]: 0.73
Retention Time 5.6 [11]: 93.43
Decrease in purity of CV-8972 between time points [12]: 1.61
Retention Time 2.2 [12]: 5.72
Retention Time 2.6 [12]: 0.9
Retention Time 4.2 [12]: 0.21
Retention Time 4.7 [12]: 0.83
Retention Time 5.6 [12]: 91.82
Decrease in purity of CV-8972 between time points [13]: 0.02
Retention Time 2.2 [13]: 6.45
Retention Time 2.6 [13]: 0.81
Retention Time 4.7 [13]: 0.93
Retention Time 5.6 [13]: 91.8
Decrease in purity of CV-8972 between time points [14]: 2.14
Retention Time 2.2 [14]: 7.38
Retention Time 2.6 [14]: 1.54
Retention Time 4.2 [14]: 0.13
Retention Time 4.7 [14]: 1.11
Retention Time 5.6 [14]: 89.66
Retention Time 2.2 [15]: 5.9
Retention Time 2.6 [15]: 0.94
Retention Time 4.2 [15]: 0.22
Retention Time 4.7 [15]: 0.78
Retention Time 5.6 [15]: 92.85
Decrease in purity of CV-8972 between time points [16]: 3.8
Retention Time 2.2 [16]: 8.12
Retention Time 2.6 [16]: 1.45
Retention Time 4.2 [16]: 0.21
Retention Time 4.7 [16]: 1.17
Retention Time 5.6 [16]: 89.05
Decrease in purity of CV-8972 between time points [17]: 2.25
Retention Time 2.2 [17]: 10.14
Retention Time 2.6 [17]: 1.48
Retention Time 4.2 [17]: 0.13
Retention Time 4.7 [17]: 1.46
Retention Time 5.6 [17]: 86.8
Decrease in purity of CV-8972 between time points [18]: 2.01
Retention Time 2.2 [18]: 11.63
Retention Time 2.6 [18]: 1.78
Retention Time 4.2 [18]: 0.13
Retention Time 4.7 [18]: 1.67
Retention Time 5.6 [18]: 84.79
Retention Time 2.2 [19]: 1.33
Retention Time 4.2 [19]: 1.19
Retention Time 5.6 [19]: 97.48
Decrease in purity of CV-8972 between time points [20]: 2.38
Retention Time 2.2 [20]: 3.73
Retention Time 4.2 [20]: 1.17
Retention Time 5.6 [20]: 95.1
Decrease in purity of CV-8972 between time points [21]: 2.65
Retention Time 2.2 [21]: 5.25
Retention Time 2.6 [21]: 0.67
Retention Time 4.2 [21]: 0.84
Retention Time 4.7 [21]: 0.79
Retention Time 5.6 [21]: 92.45
Decrease in purity of CV-8972 between time points [22]: 1.8
Retention Time 2.2 [22]: 6.63
Retention Time 2.6 [22]: 0.9
Retention Time 4.2 [22]: 0.83
Retention Time 4.7 [22]: 0.99
Retention Time 5.6 [22]: 90.65
Decrease in purity of CV-8972 between time points (289-MBA-15-A 2 mg/mL pH 6 (Form B), 22 hrs, pH 6.7): 1.5
